# From patent EP4603105A1, “PHARMACEUTICAL COMPOSITION CONTAINING CYCLIC COMPOUND HAVING SELECTIVE KRAS INHIBITORY EFFECT AGAINST HRAS AND NRAS” (CHUGAI SEIYAKU KABUSHIKI KAISHA, priority 2022, dated 2024)
# *1 amine or outer side, *2 acyl side, *3 side chain or, on linkers, in order; H or OH if unused. Where a SMILES comes first, the peptide text is derived from it. Bridges are numbered along the chain shown (N, C = ends). [ ]: non-standard residue; d: D form. The star is where a group is joined. hPhe(3,5-F2-4-CF3) = N[C@@H](CCc1cc(F)c(C(F)(F)F)c(F)c1)C(=O)O; hPhe(3-Cl-4-CF3) = N[C@@H](CCc1ccc(C(F)(F)F)c(Cl)c1)C(=O)O; NPrPhe(4-CF3) = CCCN[C@@H](Cc1ccc(C(F)(F)F)cc1)C(=O)O; X28 = Cc1ccc(C[C@@H](C(=O)[*:2])N(CC2CCCCC2)[*:1])cc1; NMePhe(4-Me) = CN[C@@H](Cc1ccc(C)cc1)C(=O)O; NMeGly(cPent) = CN[C@H](C(=O)O)C1CCCC1; Ac4c(3,3-F2) = NC1(C(=O)O)CC(F)(F)C1; NMeD = CN[C@@H](CC(=O)O)C(=O)O; NMeL = CN[C@@H](CC(C)C)C(=O)O; Pip = O=C(O)[C@@H]1CCCCN1; Morpholide = C1CN(*)CCO1; NMeA = CN[C@@H](C)C(=O)O; Pyrrolidide = C1CCN(*)C1; Ac5c = NC1(C(=O)O)CCCC1; Aze = O=C(O)[C@@H]1CCN1; Sar = CNCC(=O)O
# Assays:
# [1] = biological target: GDP-bound NRAS wild-type protein (Homo sapiens, UniProt P01111); assay: Binding to NRAS by surface plasmon resonance (SPR), KD and KD ratio to KRAS
# Procedure, shortened: (§1)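 Biotinylated GDP-bound RAS was captured at about 100–300 RU. Running buffer: HBS pH 7.4, 10 mM MgCl2, 10 µM GDP, 1 mM DTT, 0.01% Tween 20, 4% DMSO.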
# [2] = biological target: HRAS wild-type protein (Homo sapiens, UniProt P01112); assay: Binding to HRAS by surface plasmon resonance (SPR), KD and KD ratio to KRAS
# Procedure, shortened: as §1
# [3] = tested on: human lung cancer strain NCI-H441; assay type: cell-based
# Procedure, shortened: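 Step one: dispense the test compound in serial DMSO dilutions. Step three: add the reagent and measure […].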
# [4] = ratio of the KD value with respect to GDP-bound NRAS wild-type protein to the KD value with respect to KRAS
# [5] = ratio of the KD value with respect to HRAS wild-type protein to the KD value with respect to KRAS
# [6] = ratio of KD value for GDP-bound NRAS wild-type protein to KD value for KRAS (SPR)
# [7] = ratio of KD value for HRAS wild-type protein to KD value for KRAS (SPR)
# [8] = ratio of KD for GDP-bound NRAS wild-type protein to KD for KRAS
# [9] = ratio of KD for HRAS wild-type protein to KD for KRAS
# GDP-bound NRAS wild-type protein, sequence (P01111 whole entry): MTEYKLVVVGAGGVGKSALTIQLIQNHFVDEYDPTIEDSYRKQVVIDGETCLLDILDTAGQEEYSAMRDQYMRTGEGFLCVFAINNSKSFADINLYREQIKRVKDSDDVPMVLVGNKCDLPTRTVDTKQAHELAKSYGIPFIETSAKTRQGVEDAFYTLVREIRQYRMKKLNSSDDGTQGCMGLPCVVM
# HRAS wild-type protein, sequence (P01112 whole entry): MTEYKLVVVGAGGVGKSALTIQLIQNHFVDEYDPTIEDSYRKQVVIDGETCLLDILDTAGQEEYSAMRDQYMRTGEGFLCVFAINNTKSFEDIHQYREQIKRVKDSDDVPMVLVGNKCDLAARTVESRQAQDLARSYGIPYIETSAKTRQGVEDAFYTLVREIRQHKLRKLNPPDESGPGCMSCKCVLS
smiles,measurement,setting,value
CCO[C@@H]1C[C@H]2C(=O)NC3(CCC3)C(=O)N(C)[C@@H](C3CCCC3)C(=O)N(C)[C@H](C(=O)N(C)C)CC(=O)N(C)[C@@H](CC)C(=O)N[C@@H]([C@@H](C)CC)C(=O)N(C)CC(=O)N(C)[C@H]3CC/C=C(/C)CN(C3=O)[C@@H](Cc3ccc(C(F)(F)F)cc3)C(=O)N(C)CC(=O)N[C@@H](CCc3cc(F)c(C(F)(F)F)c(F)c3)C(=O)N2C1 [PP1334],NRAS /KRAS,[1]; ratio of KD with respect to GDP-bound NRAS wild-type protein to KD with respect to KRAS,B (a compound having 3 or more and less than 10 is denoted as B)
same,HRAS /KRAS,[2]; ratio of KD with respect to HRAS wild-type protein to KD with respect to KRAS,B (a compound having 3 or more and less than 10 is denoted as B)
same,IC50,[3],968 nM
"CCCN1C(=O)CN(C)C(=O)CN(C)C(=O)[C@H]([C@@H](C)CC)NC(=O)[C@H](CC(C)C)N(C)C(=O)C[C@@H](C(=O)N(C)C)N(C)C(=O)[C@H](C2CCCC2)N(C)C(=O)C2(CC(F)(F)C2)NC(=O)[C@@H]2CCCN2C(=O)[C@H](CCc2cc(F)c(C(F)(F)F)c(F)c2)NC(=O)CN(C)C(=O)[C@@H]1Cc1ccc(C(F)(F)F)cc1 [PP0745] ([NMeL]I[Sar][Sar][NPrPhe(4-CF3)][Sar][hPhe(3,5-F2-4-CF3)]P[Ac4c(3,3-F2)][NMeGly(cPent)][NMeD]-NMe2; lactam N-11)",NRAS /KRAS,[1]; [4],B (a compound having 3 or more and less than 10 is denoted as B)
same,HRAS /KRAS,[2]; [5],C (A compound having a KD ratio of 0.1 or more and less than 3 is denoted as C)
same,IC50,[3],3.9 nM
CCCOC[C@H]1C(=O)N[C@@H]([C@@H](C)CC)C(=O)N(C)CC(=O)N(C)[C@H]2C/C=C\CCN(C2=O)[C@@H](Cc2ccc(C(F)(F)F)cc2)C(=O)N(C)CC(=O)N[C@@H](CCc2ccc(C(F)(F)F)c(OC)c2)C(=O)N2C[C@H](OCC)C[C@H]2C(=O)NC2(CCC2)C(=O)N(C)[C@@H](C2CCCC2)C(=O)N(C)[C@H](C(=O)N(C)CC)CC(=O)N1C [PP2016],NRAS /KRAS,[1]; [4],A (a compound having 10 or more and less than 20 is denoted as A)
same,HRAS /KRAS,[2]; [5],A (a compound having 10 or more and less than 20 is denoted as A)
same,IC50,[3],8.2 nM
CC[C@H](C)[C@@H]1NC(=O)[C@H](CC(C)C)N(C)C(=O)C[C@@H](C(=O)N(C)C)N(C)C(=O)[C@H](C2CCCC2)N(C)C(=O)C2(CCCC2)NC(=O)[C@@H]2C[C@H](C)CN2C(=O)[C@H](CCc2cc(F)c(C(F)(F)F)c(F)c2)NC(=O)CN(C)C(=O)[C@H](Cc2ccc(C(F)(F)F)cc2)N2CC/C=C\C[C@@H](C2=O)N(C)C(=O)CN(C)C1=O [PP2268],NRAS /KRAS,[1]; [4],A (a compound having 10 or more and less than 20 is denoted as A)
same,HRAS /KRAS,[2]; [5],A (a compound having 10 or more and less than 20 is denoted as A)
same,IC50,[3],9.8 nM
CCCN(C)C(=O)[C@@H]1CC(=O)N(C)[C@@H](COC)C(=O)N[C@@H]([C@@H](C)CC)C(=O)N(C)CC(=O)N(C)[C@H]2C/C=C\CCN(C2=O)[C@@H](Cc2ccc(C(F)(F)F)cc2)C(=O)N(C)CC(=O)N[C@@H](CCc2cc(F)c(C(F)(F)F)c(F)c2)C(=O)N2C[C@H](F)C[C@H]2C(=O)NC2(CC(C)(C)C2)C(=O)N(C)[C@@H](C2CCCC2)C(=O)N1C [PP1696],NRAS /KRAS,[1]; [6],AA (a compound having 20 or more is denoted as AA)
same,HRAS /KRAS,[2]; [7],A (a compound having 10 or more and less than 20 is denoted as A)
same,IC50,[3],2.9 nM
CC[C@H](C)[C@@H]1NC(=O)[C@H](CC(C)C)N(C)C(=O)C[C@@H](C(=O)N2CCOCC2)N(C)C(=O)[C@H](C2CCCC2)N(C)C(=O)C2(CCC2)NC(=O)[C@@H]2C[C@@H](OC)CN2C(=O)[C@H](CCc2cc(F)c(C(F)(F)F)c(F)c2)NC(=O)CN(C)C(=O)[C@H](Cc2ccc(C(F)(F)F)cc2)N2CCCC[C@@H](C2=O)N(C)C(=O)CN(C)C1=O [PP1003],NRAS /KRAS,[1]; [8],C (A compound having a KD ratio of 0.1 or more and less than 3 is denoted as C)
same,HRAS /KRAS,[2]; [9],B (a compound having 3 or more and less than 10 is denoted as B)
same,IC50,[3],29.1 nM
CC[C@H](C)[C@@H]1NC(=O)[C@H](CC(C)C)N(C)C(=O)C[C@@H](C(=O)N2CCOCC2)N(C)C(=O)[C@H](C2CCCC2)N(C)C(=O)C2(CCCC2)NC(=O)[C@@H]2CCCN2C(=O)[C@H](CCc2cc(F)c(C(F)(F)F)c(F)c2)NC(=O)CN(C)C(=O)[C@H](Cc2ccc(C(F)(F)F)cc2)N2CCCC[C@@H](C2=O)N(C)C(=O)[C@@H]2CCCN2C1=O [PP0547],NRAS /KRAS,[1]; [4],B (a compound having 3 or more and less than 10 is denoted as B)
same,HRAS /KRAS,[2]; [5],B (a compound having 3 or more and less than 10 is denoted as B)
same,IC50,[3],21.5 nM
CCCN1C(=O)[C@@H]2CCN2C(=O)[C@H](C)N(C)C(=O)[C@H]([C@@H](C)CC)NC(=O)[C@H](CC(C)C)N(C)C(=O)C[C@@H](C(=O)N2CCOCC2)N(C)C(=O)[C@H](C2CCCC2)N(C)C(=O)C2(CCCC2)NC(=O)[C@@H]2CCCCN2C(=O)[C@H](CCc2ccc(C(F)(F)F)c(Cl)c2)NC(=O)CN(C)C(=O)[C@@H]1Cc1ccc(C(F)(F)F)cc1 [PP0284] ([NMeL]I[NMeA][Aze][NPrPhe(4-CF3)][Sar][hPhe(3-Cl-4-CF3)][Pip][Ac5c][NMeGly(cPent)][NMeD]-Morpholide; lactam N-11),NRAS /KRAS,[1]; [8],C (A compound having a KD ratio of 0.1 or more and less than 3 is denoted as C)
same,HRAS /KRAS,[2]; [9],B (a compound having 3 or more and less than 10 is denoted as B)
same,IC50,[3],29 nM
CCC[C@H]1C(=O)N[C@@H]([C@@H](C)CC)C(=O)N(C)CC(=O)N(C)[C@H]2C/C=C\CCN(C2=O)[C@@H](Cc2ccc(C(F)(F)F)cc2)C(=O)N(C)CC(=O)N[C@@H](CCc2cc(F)c(C(F)(F)F)c(F)c2)C(=O)N2C[C@@H](C)C[C@H]2C(=O)NC2(CC(C)(C)C2)C(=O)N(C)[C@@H](C2CCCC2)C(=O)N(C)[C@H](C(=O)N(C)C)CC(=O)N1C [PP1683],NRAS /KRAS,[1]; [6],A (a compound having 10 or more and less than 20 is denoted as A)
same,HRAS /KRAS,[2]; [7],A (a compound having 10 or more and less than 20 is denoted as A)
same,IC50,[3],2.5 nM
CC[C@H](C)[C@@H]1NC(=O)[C@H](CC(C)C)N(C)C(=O)C[C@@H](C(=O)N2CCOCC2)N(C)C(=O)[C@H](C2CCCC2)N(C)C(=O)C2(CCCC2)NC(=O)[C@@H]2CCCN2C(=O)[C@H](CCc2ccc(C(F)(F)F)c(Cl)c2)NC(=O)CN(C)C(=O)[C@H](Cc2ccc(C)cc2)N(CC2CCCCC2)C(=O)CN(C)C(=O)CN(C)C1=O [PP0097] ([NMeL]I[Sar][Sar][X28][Sar][hPhe(3-Cl-4-CF3)]P[Ac5c][NMeGly(cPent)][NMeD]-Morpholide; lactam N-11),NRAS /KRAS,[1]; [8],C (A compound having a KD ratio of 0.1 or more and less than 3 is denoted as C)
same,HRAS /KRAS,[2]; [9],C (A compound having a KD ratio of 0.1 or more and less than 3 is denoted as C)
same,IC50,[3],240 nM
CCO[C@@H]1C[C@H]2C(=O)NC3(CCC3)C(=O)N(C)[C@@H](C3CCCC3)C(=O)N[C@H](C)CC(=O)N(C)[C@@H](CC)C(=O)N[C@@H]([C@@H](C)CC)C(=O)N(C)CC(=O)N(C)[C@H]3C/C=C\CCN(C3=O)[C@@H](Cc3ccc(C(F)(F)F)cc3)C(=O)N(C)CC(=O)N[C@@H](CCc3cc(F)c(C(F)(F)F)c(F)c3)C(=O)N2C1 [PP1098],NRAS /KRAS,[1]; [8],B (a compound having 3 or more and less than 10 is denoted as B)
same,HRAS /KRAS,[2]; [9],B (a compound having 3 or more and less than 10 is denoted as B)
same,IC50,[3],101 nM
CC[C@H](C)[C@@H]1NC(=O)[C@H](CC(C)C)N(C)C(=O)C[C@@H](C(=O)N(C)C)N(C)C(=O)[C@H](C2CCCC2)N(C)C(=O)C2(CCCC2)NC(=O)[C@@H]2CCCN2C(=O)[C@H](CCc2ccc(C(F)(F)F)c(Cl)c2)NC(=O)CN(C)C(=O)[C@H](Cc2ccc(C)cc2)N2CC/C=C(/C)C[C@@H](C2=O)N(C)C(=O)CN(C)C1=O [PP0616],NRAS /KRAS,[1]; [4],B (a compound having 3 or more and less than 10 is denoted as B)
same,HRAS /KRAS,[2]; [5],B (a compound having 3 or more and less than 10 is denoted as B)
same,IC50,[3],73.8 nM
CC[C@H](C)[C@@H]1NC(=O)[C@H](CC(C)C)N(C)C(=O)C[C@@H](C(=O)N2CCOCC2)N(C)C(=O)[C@H](C2CCCC2)N(C)C(=O)C2(CCCC2)NC(=O)[C@@H]2CCCN2C(=O)[C@H](CCc2ccc(C(F)(F)F)c(Cl)c2)NC(=O)CN(C)C(=O)[C@H](Cc2ccc(C)cc2)N(C)C(=O)CN(C)C(=O)CN(C)C1=O [PP0018] ([NMeL]I[Sar][Sar][NMePhe(4-Me)][Sar][hPhe(3-Cl-4-CF3)]P[Ac5c][NMeGly(cPent)][NMeD]-Morpholide; lactam N-11),NRAS /KRAS,[1]; [8],C (A compound having a KD ratio of 0.1 or more and less than 3 is denoted as C)
same,HRAS /KRAS,[2]; [9],C (A compound having a KD ratio of 0.1 or more and less than 3 is denoted as C)
same,IC50,[3],7 nM
CCCN1C(=O)[C@@H]2CCN2C(=O)[C@H](C)N(C)C(=O)[C@H]([C@@H](C)CC)NC(=O)[C@H](CC(C)C)N(C)C(=O)C[C@@H](C(=O)N2CCCC2)N(C)C(=O)[C@H](C2CCCC2)N(C)C(=O)C2(CCCC2)NC(=O)[C@@H]2CCCN2C(=O)[C@H](CCc2ccc(C(F)(F)F)c(Cl)c2)NC(=O)CN(C)C(=O)[C@@H]1Cc1ccc(C(F)(F)F)cc1 [PP0179] ([NMeL]I[NMeA][Aze][NPrPhe(4-CF3)][Sar][hPhe(3-Cl-4-CF3)]P[Ac5c][NMeGly(cPent)][NMeD]-Pyrrolidide; lactam N-11),NRAS /KRAS,[1]; [8],C (A compound having a KD ratio of 0.1 or more and less than 3 is denoted as C)
same,HRAS /KRAS,[2]; [9],B (a compound having 3 or more and less than 10 is denoted as B)
same,IC50,[3],4.5 nM
